Values joined by “and” are separate entries in the source; they are usually repeats but may differ in a detail not shown here. Equal entries are not always repeated. “Also recorded” adds a separate entry of the source.
Experiments:
selected transcripts = test: Salmon calcitonin/PTS893 monkey study: real-time PCR of selected transcripts; assay type: in vivo, cynomolgus monkeys (Macaca fascicularis); conditions: normalized to β-actin
Description: Based on the DNA microarray data a set of transcripts was chosen for quantitative analysis by real time-PCR(RT-PCR).
Briefly, the method exploits the SyBr Green dye which intercalates into double stranded DNA. Accumulation of PCR products is detected directly by monitoring the increase in fluorescence of the SyBr Green dye. Reactions are characterised by the point in time during cycling when amplification of a PCR product is first detected rather than the amount of PCR product accumulated after a fixed number of cycles. The higher the starting copy number of nucleic acid target, the sooner a significant increase in fluorescence is observed.
From each RNA sample, cDNA was made using an Applied Biosystem kit (Applied Biosystems # N808-0234) following the recommendation of the manufacturer. The PCR mixture was prepared using the SyBr Green Universal PCR Master Mix (Applied Biosystems #4309155) as follows: 5 μl cDNA template, 400 nM of each primer, 0.2 mM deoxynucleotide triphosphates, 1 mM MgC12 and 0.5 U Taq DNA polymerase, 5 μl SyBr Green PCR buffer and RNase free water up to a final volume of 50 μl. The PCR was performed using the ABI Prism 7700 Sequence Detection System, after a step at 95° C. for 10 min, the step-cycle program was performed for a total of 40 cycles as follows: 95° C. for 30 s, 60° C. for 1 min. A negative control was included: PCR reaction mixture with water in place of the cDNA sample.
The initial template concentration was determined based on the threshold cycle. […] Quantification was performed by calculating the unknown target concentration relative to an absolute standard and by normalizing to a validated endogenous control such as a housekeeping gene (β-actin). Results are presented as percentage of control, once the ratio between the numbers of molecule for the gene of interest divided by the number of molecule for beta-actin has been calculated.
Based on the DNA microarray data the following set of transcripts was chosen for quantitative analysis by RT-PCR: adhesion receptor CD44, angiopoietin, bone morphogenetic protein 5, carbonic anhydrase II, cartilage oligomeric matrix protein, cathepsin K, osteopontin, pre-pro-alpha-2 type I collagen, Spi-B and Y-box binding protein.

[1] = tested on: gene expression in organs; test: Blind monkey trial of three peptides: gene expression profiling of organs on Affymetrix U95 chips; assay type: in vivo, cynomolgus monkeys; conditions: 100 μg/animal/day sc, two weeks; listed as Peptide 1
[2] = tested on: hyperoxia-induced angioproliferative retinopathy; test: Hypoxic vascular retinopathy mouse model: proliferation score on retinal flatmounts after intravitreal injection; assay type: in vivo, C57/B16J mice; design: key to blood vessel tufts: points summed over zones; Zone 2 max 4 P, Zones 3 and 4 max 12 P; avascular zone: scale not given here
Description: Seven days old C57/B16J mice are put together with their nursing parent in a sealed container ventilated by a mixture of oxygen and compressed air to a final oxygen concentration of 75%±2% until day 12. Returned at room air, the animals develop a relative ischemia of the retina with neovascularization starting as early as day 14.
On day 12, when animals returned from the oxygen incubation, a volume of 2.0 μl is injected in the eye using a glass pipette with a diameter of about 150 μm at its tip.
For the intravitreal injection of a substance at day 12, mice are anesthetized by inhalation of isoflurane. Five days later the animals are sacrificed after perfusion with dextran-fluorescein and retinal flatmounts are prepared. The coded whole mounts allow to evaluate the vascular changes of the retinal blindly. The proliferation score includes quantification of the proliferation including the papilla, vascular development, vasoconstriction, retinal bleeding and tortuosity of the vessels, features also seen in human retinal disease.
Of those, 8 animals died during hyperoxia or after injection, 2 animals are not perfused, 5 animals are paraffin embedded for evaluation of neurons, of which only three could be examined, and from 29 of these animals retinal flatmounts are prepared.
Evaluation of the angioproliferative changes in the retinal preparations is performed in a masked way on coded preparations. […] The following features are taken into consideration: neovascularisation of the optic disc, blood vessel tufts formation, large clusters of blood vessel tufts, central vasoconstriction and tortuosity of the vessels. Retinal haemorrhages are not taken into account as they may also result from the intraocular injection.
For each criteria, a defined number of points (P) is assigned, which are summed up to a total proliferation score. The higher the score, the worse the hypoxia induced retinopathy. In detail:
Neovascularisation of the optic disc: either 1 or 0 points are assigned in case optic disc proliferation is measured (1 P) or absence (0 P).
Blood vessel tufts formation: the score for blood vessel tufts is determined by dividing every clock hour of the preparation surface in 4 zones: Zone 1 (optic disc zone) is evaluated in addition; Zone 2: one point for every wing (maximal 4 P); Zone 3: one point for every clock hour (maximal 12 P); and Zone 4: one point for every clock hour (maximal 12 P). Thus, a maximum of 28 points is measured provided that no avascular areas exist, and a maximum of 12 points is calculated in case of complete avascularization.
Large clusters of blood vessel tufts: every large cluster of blood vessel tufts covering more than 3 sectors is counted as one point. Thus, maximal 8 points can be measured provided that no avascular areas exist, and maximal 4 points are assignable for complete avascularization.
Central vasoconstriction: 1 point is assigned to a vasoconstriction of zone 1 of greater than 50%; 1 point is allocated if the vasoconstriction is greater than 50% of every wing of zone 2 and 3. Thus, maximal 1 point can be assigned to zone 1, and maximal 4 points each for zones 2, 3 and 4. Since so far no vasoconstriction is ever observed for zone 4, a maximum of total 9 points (without zone 4) can be allotted.
Tortuosity of the vessels: 2 points are assigned if less than one-third of the vessels are tortuous; if the amount of tortuous blood vessels is between one-third and two-thirds, 4 points are allocated, and in case more than two-thirds of the vessels are tortuous, than 6 points are given.
Proliferation in avascular zones is never observed. This is in principle a mutual exclusion of criteria; the existence of vascular proliferations has a higher impact on the retinopathy score than large avascular areas. Therefore, the maximum score ever counted with this system is 38 points using a substance which is considered to enhance vascular proliferation.
The severity of retinopathy varies from animal to animal. […]

[3] = right eye, FGF23CTP intravitreal, individual animals, retinal flatmounts
[4] = treated right eye (FGF23CTP) vs control left eye (PBS), DF 28

## Leu8, Asp10, Lysll, A1a16, G1n18, Thr33, A1a34 human PTH 1-34 [PTS893, Leu8, Asp10, Lysll, A1a16, G1n18, Thr33, A1a34 human PTH 1-34 [hPTH(1-34)]]
Selected transcripts; bone
  Real Time PCR Treatment Effect: Y-box binding protein (bone) (36140_at): +26 % respect to control
Selected transcripts
  Real Time PCR Treatment Effect: Spi-B (35883_at): −18 % respect to control
  Real Time PCR Treatment Effect: adhesion receptor CD44 (1372_at): No change
  Real Time PCR Treatment Effect: angiopoietin-1 (1929_at): No change
  Real Time PCR Treatment Effect: bone morphogenetic protein 5 (1831_at): +18 % respect to control
  Real Time PCR Treatment Effect: carbonic anhydrase II (40095_at): No change
  Real Time PCR Treatment Effect: cartilage oligomeric matrix protein (40161_at): No change
  Real Time PCR Treatment Effect: cathepsin K (128_at): No change
  Real Time PCR Treatment Effect: osteopontin (2092_s_at): No change
  Real Time PCR Treatment Effect: pre-pro-alpha-2 type I collagen (32306_g_at): +62 % respect to control

## cyclo[4-(NH2—C2H4—NH—CO—O)Pro-Phg-DTrp-Lys-Tyr(4-Bzl)-Phe] [SOM230]
[1]
  Conclusions of the in vivo Profiling by the Data Mining Team: Function/Pathway: Anti-growth activity; also recorded: GI tract/pancreatic; also recorded: Immunosuppression
  Findings by the Data Mining Team: Adrenals (gene with direction): IGF2−; also recorded: somatostatin−; also recorded: insulin receptor+; also recorded: urocortin+
  Findings by the Data Mining Team: Bone marrow (gene with direction): VIP− and peptide YY− and cyclin− and GAPDH−
  Findings by the Data Mining Team: Kidney (gene with direction): Solute carrier protein 9++; also recorded: urocortin+; also recorded: IGF2−; also recorded: beta 2−; also recorded: THRα+
  Findings by the Data Mining Team: Liver (gene with direction): IGF2− and NMDA receptor+ and glutamate dehydrogenase+ and VIP and insulin− induced protein1 and STR5
  Findings by the Data Mining Team: Pituitary (gene with direction): IGFR1− and GH1/2− and CSH(L)− and TSH− and CHRH2− and synthase++ and Immunoglobulin−−
  Findings by the Data Mining Team: Spleen (gene with direction): IGF2− and IGBP6− and insulin receptor− and urocortin+ and Ig− and ribosomal protein −− and Nk cells+
  Findings by the Data Mining Team: Stomach (gene with direction): Gastrin+; also recorded: hypocretin+; also recorded: glutamate receptor+; also recorded: GABAB−
  Findings by the Data Mining Team: Thymus (gene with direction): IGFBP1+ and MHC classII− and Ig− and FKBP12− and CD4− and defensin alpha1+,
  Findings by the Data Mining Team: Thyroid (gene with direction): NPY− and cyclins−− and ATPase calcium channel+ and somatostatin receptor 4−,

B1: FGF23CTP: unique 75-mer COOH-terminal peptide of FGF-23, SEQ ID NO: 2 (peptide, listed as Homo sapiens)
chain: HTRSAEDDSERDPLNVLKPRARMTPAPASCSQELPSAEDNSPMASDPLGVVRGGRVNTHAGGTGPEGCRPFAKFI
[2]; 6 μg intravitreal, DF 28, P-Value 0.0375
  Proliferation score, Mean Difference (paired t-test, treated right eye vs PBS left eye): −3.172
[2]; intravitreal injection, b229 p=0.018, b476 paired t-test p=0.04
  Effect on proliferative component of retinal angiopathy / proliferation score: significantly inhibited; also recorded: reaches statistical significance
[2]; [3]
  avascular zone: 1 (7×) and 2 (4×) and 0 (3×) and 3 (7×) and 4 (4×) and 7 and 6 (2×) and 5
  blood vessel tufts: 6 (4×) and 2 (3×) and 4 (3×) and 1 (2×) and 3 and 5 (2×) and 0 (2×) and 7 (4×) and 10 (3×) and 14 (2×) and 13 and 11 and 9
  large clusters of prolif.: 0 (16×) and 1 (6×) and 2 (2×) and 3 (2×) and 4 (2×) and 5
  proliferation sum: 7 (2×) and 2 (3×) and 4 (4×) and 1 (2×) and 6 (4×) and 5 and 0 (2×) and 8 (2×) and 10 (2×) and 11 and 17 and 12 (2×) and 18 (2×) and 14
  tortuosity of vessels: 0 (8×) and 2 (7×) and 3 and 1 (9×) and 5 and 6 (2×) and 4
[2]; [4]
  Paired t-test avascular zone: Mean Difference: −0.034
  Paired t-test proliferation sum: Mean Difference: −2.724
  Paired t-test tortuosity of the vessels: Mean Difference: −0.517
